Target: T1, CSNK1G1 (CK1 gamma 1) (Homo sapiens, UniProt Q9HCP0)
T1 construct: purchased Thermo Fisher Scientific (Life Technologies) SelectScreen
Experiment: SelectScreen Z'LYTE
Assay type: biochemical
Summary of the method: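 SelectScreen broad panel; activity (Z'LYTE, Adapta) plus binding formats. ATP: Km app for CSF1R Z'LYTE; 10 for CAMK1 Adapta. Readout = % per kinase.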

T1 sequence (Q9HCP0 whole entry): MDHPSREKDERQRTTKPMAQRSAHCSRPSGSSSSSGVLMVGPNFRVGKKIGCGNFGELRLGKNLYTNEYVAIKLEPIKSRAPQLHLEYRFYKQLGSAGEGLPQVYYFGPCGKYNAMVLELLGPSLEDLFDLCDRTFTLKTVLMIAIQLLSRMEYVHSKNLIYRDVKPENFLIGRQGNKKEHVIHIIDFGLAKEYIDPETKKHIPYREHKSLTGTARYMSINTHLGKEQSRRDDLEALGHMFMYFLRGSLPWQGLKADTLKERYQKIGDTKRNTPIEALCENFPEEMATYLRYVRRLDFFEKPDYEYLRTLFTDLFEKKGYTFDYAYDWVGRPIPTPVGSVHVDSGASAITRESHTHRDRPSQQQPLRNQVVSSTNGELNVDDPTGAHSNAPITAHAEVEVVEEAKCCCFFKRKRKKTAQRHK

CN(C(=O)CN1CCOCC1)c1ccc2sc3c(-c4cccc5c(=O)cc(N6CC7CCC(C6)O7)oc45)cccc3c2c1 [NU5455]
inhibition at 1 µM: -9.9%
